Assay results reported in US9556121B2, “Pyridyloxyalkyl carboxamides and use thereof as endoparasiticides and nematicides” (BAYER CROPSCIENCE AG, priority 2012, dated 2017).

What was measured:
Format in all cases: in vivo
[1] = tested on: Cooperia curticei; assay: Cooperia curticei test (COOPCU), larval kill; conditions: for effect (kill in %): after 5 days, about 40 nematode larvae; for inhibition at 20 ppm: Cooperia curticei, 120 h, COOPCU, 5 dat
Method: Cooperia curticei Test (COOPCU)
(§1) Solvent: dimethyl sulphoxide
(§2) To produce a suitable preparation of active compound, 10 mg of active compound are mixed with 0.5 ml of dimethyl sulphoxide, and the concentrate is diluted with Ringer solution to the desired concentration.
Vessels containing the active compound preparation of the desired concentration are populated with about 40 nematode larvae (Cooperia curticei).
(§3) After 5 days, the kill in % is determined. 100% means that all of the larvae have been killed; 0% means that none of the larvae have been killed.

[2] = tested on: Haemonchus contortus; assay: Haemonchus contortus test (HAEMCO), larval kill; conditions: for effect (kill in %): application rate 20 ppm, after 5 days, about 40 larvae; for inhibition at 20 ppm: Haemonchus contortus, 120 h, HAEMCO, 5 dat
Method: Haemonchus contortus Test (HAEMCO)
as §1, §2
Vessels containing the active compound preparation of the desired concentration are populated with about 40 larvae of the red stomach worm (Haemonchus contortus).
as §3

[3] = tested on: Meloidogyne incognita; assay: Meloidogyne incognita test (MELGIN), gall formation on lettuce; conditions: application rate 20 ppm, after 14 days, sand, egg/larvae suspension
Method: Meloidogyne incognita Test (MELGIN)
Solvent: 125.0 parts by weight of acetone
To prepare a suitable active compound preparation, 1 part by weight of active compound is mixed with the stated amount of solvent and the concentrate is diluted with water to the desired concentration.
Vessels are filled with sand, active compound solution, an egg/larvae suspension of the root-knot nematode (Meloidogyne incognita) and lettuce seeds. The lettuce seeds germinate and the plants develop. On the roots, galls are formed.
After 14 days, the nematicidal effect in % is determined by the formation of galls. 100% means that no galls have been found; 0% means that the number of galls on the treated plants corresponds to the untreated control.

For `O=C(NCCOc1ncc(C(F)(F)F)cc1Cl)c1ccccc1Br` [1-27], the “effect (kill in %)” value ([1]; application rate 20 ppm) was 90% and the “effect (kill in %)” value [2] was 100%.
For `O=C(NCCOc1ncc(C(F)(F)F)cc1Cl)c1ccccc1I` [1-28], the “effect (kill in %)” value ([1]; application rate 20 ppm) was 100% and the “effect (kill in %)” value [2] was 100%.
With `O=C(NCCOc1ccc(C(F)(F)F)cn1)c1sccc1Cl` [1-49] the “nematicidal effect in % (formation of galls)” value (“nematicidal effect in %” for short) [3] was 90%.
`O=C(NCCOc1ncc(Cl)cc1Cl)c1ccccc1Cl` [1-16] was tested, and the “effect (kill in %)” value [2] was 100%.
In the case of `CC(COc1ncc(C(F)(F)F)cc1Cl)NC(=O)c1ccccc1C(F)(F)F` (stereo not shown) [1-4], the inhibition at 20 ppm [1] is reported as 100%, the “effect (kill in %)” value ([1]; application rate 20 ppm) is reported as 100% and the inhibition at 20 ppm [2] is reported as 90%. The “effect (kill in %)” value [2] was 90%.
In the case of `O=C(NC1(COc2ncc(C(F)(F)F)cc2Cl)CC1)c1ccccc1I` [1-170], the “effect (kill in %)” value ([1]; application rate 20 ppm) is reported as 100%, the “effect (kill in %)” value [2] is reported as 100% and the “nematicidal effect in %” value [3] is reported as 100%.
`O=C(NCCOc1ncc(Cl)cc1Cl)c1sccc1I` [1-22] was tested, and the “effect (kill in %)” value [2] was 100%.
With `N#Cc1cnc(OCCNC(=O)c2ccccc2C(F)(F)F)c(F)c1` [1-164] the “effect (kill in %)” value ([1]; application rate 20 ppm) was 90%, the “effect (kill in %)” value [2] was 90% and the “nematicidal effect in %” value [3] was 100%.
In the case of `N#Cc1cnc(OCCNC(=O)c2c(F)cccc2F)c(F)c1` [1-189], the “nematicidal effect in %” value [3] is reported as 90%.
For `O=C(NCCOc1ncc(Cl)cc1Cl)c1c(F)cccc1F` [1-19], the “effect (kill in %)” value [2] was 90%.
With `O=C(NC1(COc2ccc(C(F)(F)F)cn2)CC1)c1cccnc1Cl` [1-177] the “nematicidal effect in %” value [3] was 90%.
`O=C(NCCOc1ncc(C(F)(F)F)cc1Cl)c1ccccc1C(F)(F)F` [1-1] was tested, and the “effect (kill in %)” value ([1]; application rate 20 ppm) was 100% and the “effect (kill in %)” value [2] was 100%.
For `O=C(NCCOc1ncc(C(F)(F)F)cc1Cl)c1ccccc1C(F)F` [1-2], the “effect (kill in %)” value [2] was 100%.
With `O=C(NCCOc1ccc(C(F)(F)F)cn1)c1sccc1I` [1-48] the “effect (kill in %)” value ([1]; application rate 20 ppm) was 80%.
`CC(COc1ncc(C(F)(F)F)cc1Cl)NC(=O)c1cn(C)nc1C(F)F` (stereo not shown) [1.239, reference compound] showed an inhibition at 20 ppm [1] of 0% and an inhibition at 20 ppm [2] of 0%.
`O=C(NCCOc1ccc(C(F)(F)F)cn1)c1ccccc1Br` [1-43] was tested, and the “effect (kill in %)” value [2] was 90%.
With `O=C(NCCOc1ncc(C(F)(F)F)cc1Cl)c1ccccc1Cl` [1-26] the “effect (kill in %)” value ([1]; application rate 20 ppm) was 80% and the “effect (kill in %)” value [2] was 100%.
In the case of `O=C(NC1(COc2ncc(C(F)(F)F)cc2Cl)CC1)c1c(F)cccc1F` [1-167], the “effect (kill in %)” value [2] is reported as 80%.
With `CC(C)(COc1ccc(C(F)(F)F)cn1)NC(=O)c1ccccc1C(F)(F)F` [1-78] the “effect (kill in %)” value ([1]; application rate 20 ppm) was 80% and the “effect (kill in %)” value [2] was 80%.
For `O=C(NC1(COc2ccc(C(F)(F)F)cn2)CC1)c1c(F)cccc1F` [1-168], the “effect (kill in %)” value ([1]; application rate 20 ppm) was 100% and the “effect (kill in %)” value [2] was 90%.
For `O=C(NCCOc1ccc(C(F)(F)F)cn1)c1ccccc1Cl` [1-42], the “effect (kill in %)” value [2] was 80%.
For `O=C(NCCOc1ncc(Cl)cc1Cl)c1ccccc1C(F)(F)F` [1-20], the “effect (kill in %)” value [2] was 100%.
`O=C(NCCOc1ccc(Cl)cn1)c1ccccc1Br` [1-33] was tested, and the “effect (kill in %)” value [2] was 80%.
In the case of `O=C(NCCOc1ccc(C(F)(F)F)cn1)c1cccnc1C(F)(F)F` [1-57], the “effect (kill in %)” value [2] is reported as 80%.
`O=C(NCCOc1ncc(F)cc1F)c1c(F)cccc1F` [1-133] was tested, and the “nematicidal effect in %” value [3] was 90%.
For `O=C(NCCOc1ncc(F)cc1F)c1ccccc1C(F)(F)F` [1-134], the “nematicidal effect in %” value [3] was 90%.
With `O=C(NCCOc1ccc(Cl)cn1)c1c(F)cccc1F` [1-35] the “effect (kill in %)” value ([1]; application rate 100 ppm) was 80% and the “effect (kill in %)” value [2] was 80%.
In the case of `O=C(NCCOc1ncc(C(F)(F)F)cc1Cl)c1cccnc1C(F)(F)F` [1-63], the “effect (kill in %)” value ([1]; application rate 20 ppm) is reported as 80%, the “effect (kill in %)” value [2] is reported as 90% and the “nematicidal effect in %” value [3] is reported as 90%.
`O=C(NCCOc1ccc(Cl)cn1)c1ccccc1I` [1-34] was tested, and the “effect (kill in %)” value [2] was 90%.
In the case of `COc1ncccc1C(=O)NCCOc1ncc(C(F)(F)F)cc1Cl` [1-155], the “effect (kill in %)” value ([1]; application rate 20 ppm) is reported as 80% and the “effect (kill in %)” value [2] is reported as 100%.
In the case of `O=C(NCCOc1ncc(Cl)cc1Cl)c1ccccc1I` [1-18], the “effect (kill in %)” value [2] is reported as 100% and the “nematicidal effect in %” value [3] is reported as 80%.
For `CC(CNC(=O)c1ccccc1C(F)(F)F)Oc1ncc(C(F)(F)F)cc1Cl` (stereo not shown) [1-25], the “effect (kill in %)” value ([1]; application rate 20 ppm) was 90% and the “effect (kill in %)” value [2] was 100%.
For `Cc1ccccc1C(=O)NCCOc1ncc(C(F)(F)F)cc1Cl` [1-29], the “effect (kill in %)” value ([1]; application rate 20 ppm) was 80% and the “effect (kill in %)” value [2] was 80%.
For `O=C(NCCOc1ncc(C(F)(F)F)cc1Cl)c1ccccc1[N+](=O)[O-]` [1-53], the “effect (kill in %)” value [2] was 100%.
With `O=C(NCCOc1ncc(C(F)(F)F)cc1Cl)c1c(F)cccc1F` [1-52] the “effect (kill in %)” value [2] was 90%.
`O=C(NC1(COc2ccc(C(F)(F)F)cn2)CC1)c1ccccc1[N+](=O)[O-]` [1-196] was tested, and the “effect (kill in %)” value [2] was 90%.
With `O=C(NCCOc1ccc(C(F)(F)F)cn1)c1ccccc1I` [1-44] the “effect (kill in %)” value [2] was 100%.
For `O=C(NCCOc1ccc(Cl)cn1)c1ccccc1C(F)(F)F` [1-36], the “effect (kill in %)” value ([1]; application rate 100 ppm) was 90% and the “effect (kill in %)” value [2] was 80%.
In the case of `O=C(NCCOc1ncc(Cl)cc1Cl)c1sccc1Cl` [1-23], the “effect (kill in %)” value [2] is reported as 80%.
`O=C(NC1(COc2ncc(C(F)(F)F)cc2Cl)CC1)c1ccccc1[N+](=O)[O-]` [1-195] was tested, and the “effect (kill in %)” value [2] was 80%.
`CC(C)(COc1ncc(Cl)cc1Cl)NC(=O)c1ccccc1C(F)(F)F` [1-82] was tested, and the “effect (kill in %)” value ([1]; application rate 20 ppm) was 90% and the “effect (kill in %)” value [2] was 90%.
In the case of `O=C(NC1(COc2ncc(C(F)(F)F)cc2Cl)CC1)c1ccccc1C(F)(F)F` [1-169], the “effect (kill in %)” value ([1]; application rate 20 ppm) is reported as 80% and the “effect (kill in %)” value [2] is reported as 80%.
`CC(COc1ccc(Cl)cc1Cl)NC(=O)c1ccccc1C(F)(F)F` (stereo not shown) [4-2, reference compound] gave an inhibition at 20 ppm [1] of 0%.
In the case of `O=C(NCCOc1ccc(C(F)(F)F)cn1)c1c(F)cccc1F` [1-45], the “effect (kill in %)” value ([1]; application rate 100 ppm) is reported as 80% and the “effect (kill in %)” value [2] is reported as 90%.
For `O=C(NC1(COc2ccc(C(F)(F)F)cn2)CC1)c1ccccc1C(F)(F)F` [1-173], the “effect (kill in %)” value ([1]; application rate 20 ppm) was 100% and the “effect (kill in %)” value [2] was 100%.
With `O=C(NCCOc1ncc(Cl)cc1Cl)c1ccccc1F` [1-15] the “effect (kill in %)” value [2] was 80%.
With `O=C(NC1(COc2ccc(C(F)(F)F)cn2)CC1)c1ccccc1Br` [1-176] the “effect (kill in %)” value ([1]; application rate 20 ppm) was 90% and the “effect (kill in %)” value [2] was 90%.
In the case of `O=C(NCCOc1ccc(C(F)(F)F)cn1)c1ccccc1C(F)(F)F` [1-46], the “effect (kill in %)” value [2] is reported as 100%.
`O=C(NCCOc1ncc(F)cc1F)c1ccccc1I` [1-141] was tested, and the “nematicidal effect in %” value [3] was 90%.
